Here are results for 24 molecules from publication PMC7281298, “Exploring Kinase Inhibition Properties of 9H-pyrimido[5,4-b]- and [4,5-b]indol-4-amine Derivatives” (Pharmaceuticals, 2020).

Molecules are shown by their SMILES. Read-outs that look alike come from different tables or passages of the source.

One experiment concerns the target CDK5/p25 (Homo sapiens, UniProt Q00535). Nature of the experiment: Kinase inhibition assay, CDK5/p25. The format is biochemical. The settings on record: for IC50: average of triplicate determination (<10% variation), read-out: Kinase inhibitory potency (IC50) CDK5/p25. The protocol: (§1) The inhibitory potency of the synthesized pyrimido[4,5-b]indol-4-amines and pyrimido[5,4-b]indol-4-amines towards CDK5/p25, CK1δ/ε, DYRK1A, and GSK-3α/β was investigated according preceding procedures.
(§2) Buffers, kinase preparations, and assays were performed as described in ref. [12, 13, 14] according methods initially published in previous works.

The target of experiment [1] is CK1δ/ε. Nature of the experiment: Kinase inhibition assay, CK1δ/ε. The format is biochemical. The settings on record: for IC50: average of triplicate determination (<10% variation), read-out: Kinase inhibitory potency (IC50) CK1δ/ε. The protocol: as §1, §2
For experiment [2], the target named is T1, DYRK1A (Homo sapiens, UniProt Q13627). Nature of the experiment: Kinase inhibition assay, DYRK1A. The format is biochemical. The settings on record: for IC50: read-out: Kinase inhibitory potency (IC50) DYRK1A. The protocol:
as §1, §2

The next experiment has as its target GSK-3α/β. The experiment is described as follows: Kinase inhibition assay, GSK-3α/β. The settings on record: for IC50: average of triplicate determination (<10% variation), read-out: Kinase inhibitory potency (IC50) GSK-3α/β. The format is biochemical. The protocol:
as §1, §2

The subject of experiment [3] is CK1δ/ε. Further details: method as in PMID 23237976, PMID 23124214, PMID 25549552. The settings on record: already published data, cited from earlier work; for IC50: thieno[2,3-d]pyrimidin-4-amine congeners.
The target of experiment [4] is T1, DYRK1A. Further details: method as in PMID 23237976, PMID 23124214, PMID 25549552. The settings on record: thieno[2,3-d]pyrimidin-4-amine congeners, already published data; cited from earlier work.
[5] abbreviates: average of triplicate determination (<10% variation).

CDK5/p25, sequence (Q00535 whole entry, species assumed): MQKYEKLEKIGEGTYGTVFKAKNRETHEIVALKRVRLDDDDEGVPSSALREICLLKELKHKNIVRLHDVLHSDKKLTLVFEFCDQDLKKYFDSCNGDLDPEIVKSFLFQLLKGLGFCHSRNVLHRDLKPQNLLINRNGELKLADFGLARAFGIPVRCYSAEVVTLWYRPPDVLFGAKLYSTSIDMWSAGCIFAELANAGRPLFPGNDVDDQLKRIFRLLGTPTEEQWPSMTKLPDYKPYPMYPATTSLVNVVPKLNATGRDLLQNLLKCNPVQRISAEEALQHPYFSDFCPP
CDK5/p25, sequence (Q15078 99-307 partner limits assumed, species assumed): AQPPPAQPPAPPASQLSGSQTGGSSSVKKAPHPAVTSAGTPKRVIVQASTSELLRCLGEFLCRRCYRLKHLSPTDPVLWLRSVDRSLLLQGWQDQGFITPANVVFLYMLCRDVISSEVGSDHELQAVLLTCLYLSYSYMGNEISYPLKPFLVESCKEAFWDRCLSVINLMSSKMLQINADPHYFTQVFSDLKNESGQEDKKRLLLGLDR

On to `Nc1ncnc2c1[nH]c1ccccc12` [Compound 1a, 5H-Pyrimido[5,4-b]indol-4-amine], for which the IC50 at CDK5/p25 was > 10 µM; on CK1δ/ε [1], 2 µM; at DYRK1A [2] (setting [5]), 2.2 µM; on GSK-3α/β, > 10 µM.
Take `Cn1c2ccccc2c2ncnc(N)c21` [Compound 1b, 5-Methyl-5H-pyrimido[5,4-b]indol-4-amine]: the IC50 on CDK5/p25 was > 10 µM; on CK1δ/ε [1] it was 4 µM; on DYRK1A [2] (setting [5]) it was 5.8 µM; at GSK-3α/β, > 10 µM.
On to `CCn1c2ccccc2c2ncnc(N)c21` [Compound 1c, 5-Ethyl-5H-pyrimido[5,4-b]indol-4-amine], for which the IC50 on CDK5/p25 was > 10 µM; on CK1δ/ε [1], 2.8 µM; on DYRK1A [2] (setting [5]), 4.1 µM; at GSK-3α/β, > 10 µM.
Take `Nc1ncnc2c3ccccc3n(Cc3ccccc3)c12` [Compound 1d, 5-Benzyl-5H-pyrimido[5,4-b]indol-4-amine]: the IC50 at CDK5/p25 was > 10 µM; at CK1δ/ε [1], 0.6 µM; at DYRK1A [2] (setting [5]), > 10 µM; at GSK-3α/β, > 10 µM. The “Inhibitory activity against DYRK1A (in words)” value on DYRK1A [2] is listed as “lack of activity”.
Turning to `Nc1ncnc2c1[nH]c1ccc([N+](=O)[O-])cc12` [Compound 2a, 8-Nitro-5H-pyrimido[5,4-b]indol-4-amine], the IC50 is > 10 µM on CDK5/p25, > 10 µM on CK1δ/ε [1], 7.6 µM on DYRK1A [2] (setting [5]) and > 10 µM at GSK-3α/β. For the same molecule, the “Inhibitory activity against CK1δ/ε (in words)” value in the experiment on CK1δ/ε [1] is recorded as “no inhibition”. The “Inhibitory activity against DYRK1A (in words)” value at DYRK1A [2] is on record as “low micromolar activity”.
For the molecule `Cn1c2ccc([N+](=O)[O-])cc2c2ncnc(N)c21` [Compound 2b, 5-Methyl-8-nitro-5H-pyrimido[5,4-b]indol-4-amine], the IC50 at CDK5/p25, on CK1δ/ε [1], at DYRK1A [2] (setting [5]) and on GSK-3α/β was > 10 µM throughout.
With `CCn1c2ccc([N+](=O)[O-])cc2c2ncnc(N)c21` [Compound 2c, 5-Ethyl-8-nitro-5H-pyrimido[5,4-b]indol-4-amine], the IC50 on CDK5/p25, on CK1δ/ε [1], at DYRK1A [2] (setting [5]) and at GSK-3α/β was > 10 µM each time.
As for `Nc1ncnc2c3cc([N+](=O)[O-])ccc3n(Cc3ccccc3)c12` [Compound 2d, 5-Benzyl-8-nitro-5H-pyrimido[5,4-b]indol-4-amine], the IC50 at CDK5/p25, on CK1δ/ε [1], on DYRK1A [2] (setting [5]) and on GSK-3α/β was > 10 µM throughout.
Regarding `Nc1ncnc2[nH]c3ccccc3c12` [Compound 3a, 9H-Pyrimido[4,5-b]indol-4-amine], the IC50 at CDK5/p25 is 6 µM; on CK1δ/ε [1], 0.7 µM; on DYRK1A [2] (setting [5]) it was 3.1 µM; at GSK-3α/β, > 10 µM.
`Cn1c2ccccc2c2c(N)ncnc21` [Compound 3b, 9-Methyl-9H-pyrimido[4,5-b]indol-4-amine]: the IC50 was > 10 µM on CDK5/p25, 2.5 µM on CK1δ/ε [1], > 10 µM on DYRK1A [2] (setting [5]) and > 10 µM on GSK-3α/β.
Take `CCn1c2ccccc2c2c(N)ncnc21` [Compound 3c, 9-Ethyl-9H-pyrimido[4,5-b]indol-4-amine]: the IC50 is > 10 µM on CDK5/p25, 1.6 µM on CK1δ/ε [1], 9.8 µM on DYRK1A [2] (setting [5]) and > 10 µM at GSK-3α/β.
Consider `Nc1ncnc2c1c1ccccc1n2Cc1ccccc1` [Compound 3d, 9-Benzyl-9H-pyrimido[4,5-b]indol-4-amine], for which the IC50 was > 10 µM on CDK5/p25, 2.7 µM on CK1δ/ε [1], > 10 µM on DYRK1A [2] (setting [5]) and > 10 µM at GSK-3α/β.
Take `Nc1ncnc2[nH]c3cc([N+](=O)[O-])ccc3c12` [Compound 4a, 7-Nitro-9H-pyrimido[4,5-b]indol-4-amine]: the IC50 at CDK5/p25 was > 10 µM; at CK1δ/ε [1], 3.5 µM; at DYRK1A [2] (setting [5]), 7.6 µM; on GSK-3α/β it was > 10 µM.
Consider `Cn1c2cc([N+](=O)[O-])ccc2c2c(N)ncnc21` [Compound 4b, 9-Methyl-7-nitro-9H-pyrimido[4,5-b]indol-4-amine], for which the IC50 on CDK5/p25 was > 10 µM; on CK1δ/ε [1], 2.8 µM; at DYRK1A [2] (setting [5]), > 10 µM; on GSK-3α/β, > 10 µM.
Consider `CCn1c2cc([N+](=O)[O-])ccc2c2c(N)ncnc21` [Compound 4c, 9-Ethyl-7-nitro-9H-pyrimido[4,5-b]indol-4-amine], for which the IC50 on CDK5/p25 is > 10 µM; on CK1δ/ε [1], 1.6 µM; on DYRK1A [2] (setting [5]) it was 5.9 µM; on GSK-3α/β, > 10 µM.
In the case of `Nc1ncnc2c1c1ccc([N+](=O)[O-])cc1n2Cc1ccccc1` [Compound 4d, 9-Benzyl-7-nitro-9H-pyrimido[4,5-b]indol-4-amine], the IC50 at CDK5/p25, on CK1δ/ε [1], at DYRK1A [2] (setting [5]) and at GSK-3α/β was > 10 µM throughout.
For `COc1ccc2c(c1)[nH]c1c(C)nccc12` [Compound 11a, harmine, reference compound], on CDK5/p25, the “Inhibitory activity against CDK5/p25 (in words)” value was “definitely inactive”. At CK1δ/ε [1], the IC50 was found to be 1.5 µM. Also, in the experiment with GSK-3α/β, the “Inhibitory activity against GSK3α/β (in words)” value is “definitely inactive” and the IC50 was > 10 µM.
For `COc1ccc2c3ccnc(C)c3n(C)c2c1` [Compound 11b, 7-Methoxy-1,9-dimethyl-β-carboline], at CDK5/p25, the “Inhibitory activity against CDK5/p25 (in words)” value is “totally inactive” and the IC50 is > 10 µM. In addition, in the experiment on CK1δ/ε [1], the “Inhibitory activity against CK1δ/ε (in words)” value is “totally inactive” and the IC50 was > 10 µM. In the experiment with GSK-3α/β, the “Inhibitory activity against GSK3α/β (in words)” value was “totally inactive” and the IC50 was > 10 µM.
`CCn1c2cc(OC)ccc2c2ccnc(C)c21` [Compound 11c, 9-Ethyl-7-methoxy-1-methyl-β-carboline]: at CDK5/p25, the “Inhibitory activity against CDK5/p25 (in words)” value was “totally inactive” and the IC50 was > 10 µM. In the experiment with CK1δ/ε [1], the “Inhibitory activity against CK1δ/ε (in words)” value was “totally inactive” and the IC50 was > 10 µM. Moreover, on DYRK1A [2], the IC50 was determined as 0.037 µM. Moreover, in the experiment on GSK-3α/β, the “Inhibitory activity against GSK3α/β (in words)” value was “totally inactive” and the IC50 was > 10 µM.
Take `COc1ccc2c3ccnc(C)c3n(Cc3ccccc3)c2c1` [Compound 11d, 9-Benzyl-7-methoxy-1-methyl-β-carboline]: the “Inhibitory activity against CDK5/p25 (in words)” value on CDK5/p25 is “totally inactive”. In addition, the IC50 at CDK5/p25 is > 10 µM; at CK1δ/ε [1] it was > 10 µM; at DYRK1A [2] (setting [5]) it was 0.059 µM; at GSK-3α/β it was > 10 µM. For the same molecule, the “Inhibitory activity against CK1δ/ε (in words)” value in the experiment on CK1δ/ε [1] is “totally inactive”. The “Inhibitory activity against GSK3α/β (in words)” value with GSK-3α/β is “totally inactive”.
For the molecule `Nc1ncnc2c1sc1ccccc12` [Compound 12], the IC50 with CK1δ/ε [3] was 0.79 µM; on DYRK1A [4], 33 µM.
In the case of `Nc1ncnc2c1sc1nccnc12` [Compound 13], in the experiment on CK1δ/ε [3], the “Activity against CK1 (in words)” value was “micromolar and submicromolar activity”; the IC50 is 2.4 µM. Further, the IC50 at DYRK1A [4] is > 10 µM.
As to `Nc1ncnc2c1sc1cccnc12` [Compound 14], in the experiment with CK1δ/ε [3], the “Activity against CK1 (in words)” value was “micromolar and submicromolar activity”. The IC50 was 1.8 µM with CK1δ/ε [3] and 6 µM on DYRK1A [4].
For `Nc1ncnc2c1sc1ncccc12` [Compound 15], in the experiment on CK1δ/ε [3], the “Activity against CK1 (in words)” value is “micromolar and submicromolar activity”; the IC50 was 0.031 µM. In addition, the IC50 on DYRK1A [4] is > 10 µM.
